Results from patent US20250034216A1, “STEREOSELECTIVE COVALENT LIGANDS FOR ONCOGENIC AND IMMUNOLOGICAL PROTEINS” (The Scripps Research Institute, priority 2021, published 2025).

Each compound was assayed against T1, WAPL_C1133 (Homo sapiens, UniProt Q7Z5K2) (assay: IA-DTB cysteine engagement). Settings: 22Rv1 cells, 20 μM probe, 1 h, relative to DMSO.
T1 construct: endogenous in cells; host or cells: 22Rv1
T1 sequence (Q7Z5K2 1-1190): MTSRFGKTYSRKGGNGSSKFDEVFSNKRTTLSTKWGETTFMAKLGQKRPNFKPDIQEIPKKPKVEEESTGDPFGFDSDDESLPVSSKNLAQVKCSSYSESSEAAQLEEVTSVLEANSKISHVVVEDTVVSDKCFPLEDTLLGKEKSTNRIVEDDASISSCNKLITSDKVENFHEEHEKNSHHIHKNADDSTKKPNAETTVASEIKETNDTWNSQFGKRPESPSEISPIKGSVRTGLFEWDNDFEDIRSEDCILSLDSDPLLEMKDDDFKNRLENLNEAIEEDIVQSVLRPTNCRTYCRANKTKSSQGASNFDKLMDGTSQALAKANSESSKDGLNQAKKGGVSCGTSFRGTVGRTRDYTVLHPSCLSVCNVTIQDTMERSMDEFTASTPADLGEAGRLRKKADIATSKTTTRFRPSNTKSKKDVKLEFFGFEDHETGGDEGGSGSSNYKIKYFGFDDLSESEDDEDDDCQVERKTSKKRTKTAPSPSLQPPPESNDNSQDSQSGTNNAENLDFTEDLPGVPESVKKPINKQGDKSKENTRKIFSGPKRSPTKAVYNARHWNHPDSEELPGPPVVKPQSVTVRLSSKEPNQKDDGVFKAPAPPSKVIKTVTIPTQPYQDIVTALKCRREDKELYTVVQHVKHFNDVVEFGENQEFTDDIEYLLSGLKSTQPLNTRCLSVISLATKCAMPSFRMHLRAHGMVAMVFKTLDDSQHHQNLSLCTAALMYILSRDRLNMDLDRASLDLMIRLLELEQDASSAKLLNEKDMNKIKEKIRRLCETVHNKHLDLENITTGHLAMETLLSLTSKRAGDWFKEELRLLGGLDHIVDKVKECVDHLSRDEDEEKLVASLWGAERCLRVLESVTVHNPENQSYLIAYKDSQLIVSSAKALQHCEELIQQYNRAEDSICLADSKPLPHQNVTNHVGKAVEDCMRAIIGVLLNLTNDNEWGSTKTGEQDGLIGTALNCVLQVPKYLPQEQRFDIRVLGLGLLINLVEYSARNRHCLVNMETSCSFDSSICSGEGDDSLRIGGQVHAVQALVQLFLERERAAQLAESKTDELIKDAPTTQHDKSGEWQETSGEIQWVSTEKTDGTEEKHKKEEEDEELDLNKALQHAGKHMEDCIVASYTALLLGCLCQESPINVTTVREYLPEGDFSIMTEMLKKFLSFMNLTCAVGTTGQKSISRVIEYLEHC
Assay type: binding
Outline: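 Probe-exposed cells were lysed, IA-DTB-labeled, trypsinized and streptavidin-enriched. Multiplexed TMT quantitation gave engagement ratios versus DMSO, with non-tryptic peptides excluded and intensities normalized to median summed signal.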

| % engagement WAPL_C1133 [%] | Structure (SMILES) |
| --- | --- |
| 18 | C=CC(=O)N1C[C@@H](c2ccc(Br)cc2)[C@H]1C(=O)Nc1cccc2cccnc12 [MY-1A, (2S,3R)-1-acryloyl-3-(4-bromophenyl)-N-(quinolin-8-yl)azetidine-2-carboxamide] |
| 34 | C=CC(=O)N1C[C@H](c2ccc(Br)cc2)[C@@H]1C(=O)Nc1cccc2cccnc12 [MY-1B, (2R,3S)-1-acryloyl-3-(4-bromophenyl)-N-(quinolin-8-yl)azetidine-2-carboxamide] |
| 46 | C=CC(=O)N1C[C@H](c2ccc(Br)cc2)[C@H]1C(=O)Nc1cccc2cccnc12 [MY-3B, (2S,3S)-1-acryloyl-3-(4-bromophenyl)-N-(quinolin-8-yl)azetidine-2-carboxamide] |
| 78.5 | C=CC(=O)N1C[C@H](c2ccc(Br)cc2)[C@H]1C(=O)Nc1cccc2cccnc12 [MY-3A, (2S,3S)-1-acryloyl-3-(4-bromophenyl)-N-(quinolin-8-yl)azetidine-2-carboxamide] |
